Reference: patent publication US5416118A, “Bicyclic amides as inhibitors of acyl-coenzyme A: cholesterol acyl transferase” (Schering Corporation, priority 1993, dated 1995)

Assays:
cholesteryl esters = assay: In Vivo Assay of Hypolipidemic Agents Using the Hyperlipidemic Hamster; conditions: Mesocricetus auratus, po, 168 h, oral gavage once daily, 7 days, versus control, read-out: % Reduction in cholesteryl esters; for change in vivo at 50 mg/kg: 50 mpk; for change in vivo at 25 mg/kg: 25 mpk
Procedure: In Vivo Assay of Hypolipidemic Agents Using the Hyperlipidemic Hamster
Hamsters are separated into groups of six and given a control cholesterol diet (Pudna Chow #5001 containing 0.5% cholesterol) for seven days. Diet consumption is monitored to determine dietary cholesterol exposure in the face of test compounds. The animals are dosed with the test compound once daily beginning with the initiation of diet. Dosing is by oral gavage of 0.2 mL of corn oil alone (control group) or solution (or suspension) of test compound in corn oil. All animals moribund or in poor physical condition are euthanized. After seven days, the animals are anesthetized by […] of ketamine and sacrificed by decapitation. Blood is collected into vacutainer tubes containing EDTA for plasma lipid analysis and the liver excised for tissue lipid analysis. Data is reported as percent reduction of lipid versus control.
(§1) Using the assay methods described above, the compounds of Examples 1-9 were tested for in vitro ACAT inhibitory activity and for the ability to lower the level of cholesteryl esters in vivo.

ACAT = ACAT Assay (in vitro); type: biochemical; conditions: dose = 10 μM; rat liver microsomes
Procedure: This assay measures the activity of ACAT by measuring the ACAT-mediated transfer of tritiated oleic acid from acyl-CoA to cholesterol to give labelled cholesterol oleate. Rat liver microsomes are used as the source of ACAT. Assays are performed in round bottom microtiterplates using a total incubation volume of 50 μL. Each incubation well receives 10 μL assay buffer (0.5M KHPO4, 10 μM dithiothreitol, pH 7.4), 7.5 μL of 40 mg/mL BSA (Bovine Serum Albumin) and 12.5 μg of microsomal protein. The test compound (in sufficient amount to bring the final concentration to from 0.1 to 25 μM), reference compound, or vehicle control is added and the final volume brought to 47 μL. The microtiterplate is then floated on the surface of a 37° C. water bath for fifteen minutes. Incubations are started by the addition of 3 μL ^3 H-acyl CoA (1 μCi/well, final concentration of 10 μM acyl CoA). The plate is then returned to the water bath for 15 minutes. The incubations are then terminated by application of 15 μL from each incubation to individual lanes on a thin layer plate (Silica Gel GF 20×20 cm). Standards are applied to several lanes so that the cholesterol ester band can be identified. After drying, the plates are eluted with 90:10:1 petroleum ether:ether:HOAc. The standards are visualized via iodine vapor, and the regions corresponding to cholesterol ester are scraped into 7 mL scintillation vials. 4 mL of scintillant are added to each vial, and the radioactivity quantified. Background count is determined by the boiled controls. Full activity is determined by activity in the presence of vehicle. The percent inhibition is calculated by subtracting the background from both control and test samples, and the test value is calculated as a percentage of the control. For IC50 determinations, the inhibition is plotted against drug doses on a log scale and the concentration at which 50% inhibition is obtained is determined.
as §1

SMILES	change in vivo at 100 mg/kg (cholesteryl esters; 100 mpk)	ACAT % Inhibition (ACAT)	change in vivo at 50 mg/kg (cholesteryl esters)	change in vivo at 10 mg/kg (cholesteryl esters; 10 mpk)	change in vivo at 25 mg/kg (cholesteryl esters)
CCCCCCCC/C=C\CCCCCCCC(=O)N[C@H]1c2ccccc2OC[C@H]1c1ccccc1 (relative stereo) [Example 2N]	0%	85%	–	–	–
COc1ccc2c(c1)C[C@@H](c1ccccc1)[C@H]2NC(=O)C(c1ccccc1)c1ccccc1 (relative stereo) [Example 2R]	–	75%	0%	–	–
O=C(N[C@H]1c2ccccc2C[C@H]1c1ccccc1)C(c1ccccc1)c1ccccc1 (relative stereo) [Example 2S]	–	83%	16%	–	–
O=C(N[C@H]1c2ccccc2C[C@H]1c1ccc(O)cc1)C(c1ccccc1)c1ccccc1 (relative stereo) [Example 3, cis-N-[2-(4'-hydroxyphenyl)indanyl]-αphenylbenzeneacetamide]	–	99%	-89%	-71%	-87.5%
O=C(N[C@@H]1c2ccccc2C[C@@H]1c1cccc(O)c1)C(c1ccccc1)c1ccccc1 (relative stereo) [Example 3B]	–	97%	0%	–	–
O=C(N[C@@H]1c2ccccc2CC[C@@H]1c1cccc(O)c1)C(c1ccccc1)c1ccccc1 (relative stereo) [Example 3C]	–	77%	0%	–	–
O=C(N[C@@H]1c2ccccc2CC[C@H]1c1cccc(O)c1)C(c1ccccc1)c1ccccc1 (relative stereo) [Example 3D]	–	98%	0%	–	–
O=C(N[C@@H]1c2ccccc2C[C@H]1c1ccc(O)cc1)C(c1ccccc1)c1ccccc1 (relative stereo) [Example 3E]	–	99%	-52%	–	–
O=C(N[C@@H]1c2ccccc2CC[C@@H]1c1ccc(O)cc1)C(c1ccccc1)c1ccccc1 (relative stereo) [Example 3F]	–	91%	-16%	–	–
O=C(N[C@@H]1c2ccccc2CC[C@H]1c1ccc(O)cc1)C(c1ccccc1)c1ccccc1 (relative stereo) [Example 3G]	–	93%	-57%	–	-43%
CCCCCCCCCC(C)(C)C(=O)N[C@@H]1c2ccccc2CC[C@H]1c1ccc(O)cc1 (relative stereo) [Example 3H]	–	86%	0%	–	–
O=C(N[C@@H]1c2ccccc2CC[C@H]1c1ccc(O)cc1)N(c1ccccc1)c1ccccc1 (relative stereo) [Example 3I]	–	99%	-16%	–	–
O=C(N[C@@H]1c2ccc(O)cc2C[C@@H]1c1ccccc1)C(c1ccccc1)c1ccccc1 (relative stereo) [Example 3K]	–	54%	0%	–	–
O=C(N[C@@H]1c2ccc(O)cc2CC[C@@H]1c1ccccc1)C(c1ccccc1)c1ccccc1 (relative stereo) [Example 3M]	–	87%	-45%	–	–
O=C(N[C@@H]1c2ccc(O)cc2CC[C@H]1c1ccccc1)C(c1ccccc1)c1ccccc1 (relative stereo) [Example 3N]	–	92%	0%	–	–
O=C(N[C@@H]1c2cc(O)ccc2CC[C@@H]1c1ccccc1)C(c1ccccc1)c1ccccc1 (relative stereo) [Example 3P]	–	75%	0%	–	–
O=C(N[C@@H]1c2cc(O)ccc2CC[C@H]1c1ccccc1)C(c1ccccc1)c1ccccc1 (relative stereo) [Example 3Q]	–	94%	-78%	–	–
O=C(N[C@@H]1c2cc(O)ccc2C[C@@H]1c1ccccc1)C(c1ccccc1)c1ccccc1 (relative stereo) [Example 3W]	–	84%	14%	–	–
CCCCCCCC/C=C\CCCCCCCC(=O)N[C@@H]1c2ccccc2CC[C@H]1c1ccc(O)cc1 (relative stereo) [Example 4, trans-N-[2-(4'-hydroxyphenyl)-1,2,3,4-tetrahydronaphth-1-yl]oleamide]	–	94%	0%	–	–
